# Source: ChEMBL document CHEMBL5214990, “Novel Aryl Alkamidazole Derivatives as Multifunctional Antifungal Inhibitors: Design, Synthesis, and Biological Evaluation” (J Med Chem, 2022)
# How the values were obtained:
# Type in all cases: functional
# [1] = test system: Candida albicans; assay: Antifungal activity against Candida albicans ATCC SC5314 assessed as inhibition of fungal growth measured after 72 hrs by CLSI based liquid medium dilution method
# [2] = test system: Cryptococcus neoformans; assay: Antifungal activity against Cryptococcus neoformans assessed as inhibition of fungal growth measured after 72 hrs by CLSI based liquid medium dilution method
# [3] = test system: Pichia kudriavzevii; assay: Antifungal activity against Candida krusei ATCC 6258 assessed as inhibition of fungal growth measured after 72 hrs by CLSI based liquid medium dilution method
# [4] = test system: Candida tropicalis; assay: Antifungal activity against Candida tropicalis ATCC 1369 assessed as inhibition of fungal growth measured after 72 hrs by CLSI based liquid medium dilution method
# [5] = test system: Aspergillus fumigatus; assay: Antifungal activity against Aspergillus fumigatus KM8001 assessed as inhibition of fungal growth measured after 72 hrs by CLSI based liquid medium dilution method
# [6] = test system: Candida albicans; assay: Antifungal activity against fluconazole-resistant Candida albicans 17# assessed as inhibition of fungal growth measured after 72 hrs by CLSI based liquid medium dilution method
# [7] = test system: Candida albicans; assay: Antifungal activity against fluconazole-resistant Candida albicans CaR assessed as inhibition of fungal growth measured after 72 hrs by CLSI based liquid medium dilution method
# [8] = test system: Candida albicans; assay: Antifungal activity against fluconazole-resistant Candida albicans 632 assessed as inhibition of fungal growth measured after 72 hrs by CLSI based liquid medium dilution method
# [9] = test system: Candida albicans; assay: Antifungal activity against fluconazole-resistant Candida albicans 901 assessed as inhibition of fungal growth measured after 72 hrs by CLSI based liquid medium dilution method
# [10] = test system: Candida albicans; assay: Antifungal activity against fluconazole-resistant Candida albicans 904 assessed as inhibition of fungal growth measured after 72 hrs by CLSI based liquid medium dilution method
Structure (SMILES),MIC50 [1] [µg/mL],MIC50 [2] [µg/mL],MIC50 [3] [µg/mL],MIC50 [4] [µg/mL],MIC50 [5] [µg/mL],MIC50 [6] [µg/mL],MIC50 [7] [µg/mL],MIC50 [8] [µg/mL],MIC50 [9] [µg/mL],MIC50 [10] [µg/mL]
C[C@H](C(=O)OC(Cn1cnnn1)c1ccc(F)cc1)c1ccc(CC2CCCC2=O)cc1 (stereo not given in full),1,2,0.5,2,> 8,–,–,–,–,–
C[C@H](C(=O)OC(Cn1cnnn1)c1ccc(Cl)cc1)c1cccc(C(=O)c2ccccc2)c1 (stereo not given in full),0.5,0.5,1,2,> 8,–,–,–,–,–
C[C@H](C(=O)N(C)CC(O)(Cn1ccnc1)c1ccc(Cl)cc1)c1cccc(C(=O)c2ccccc2)c1 (stereo not given in full),0.5,0.5,0.5,1,4,–,–,–,–,–
COc1ccc2cc([C@H](C)C(=O)N(C)CC(O)(Cn3ccnc3)c3ccc(Cl)cc3Cl)ccc2c1 (stereo not given in full),0.5,0.5,2,0.25,4,–,–,–,–,–
C[C@H](C(=O)N[C@H](Cn1ccnc1)c1ccccc1)c1cccc(C(=O)c2ccccc2)c1,1,0.5,1,2,> 8,–,–,–,–,–
COc1ccc2cc([C@H](C)C(=O)N(C)CC(O)(Cn3ccnc3)c3ccc(Cl)cc3)ccc2c1 (stereo not given in full),0.5,2,1,1,> 8,–,–,–,–,–
C[C@H](C(=O)N[C@H](Cn1cncn1)c1ccccc1)c1cccc(C(=O)c2ccccc2)c1,1,2,0.5,1,2,–,–,–,–,–
CC(=O)N1CCN(c2ccc(OCC3COC(Cn4ccnc4)(c4ccc(Cl)cc4Cl)O3)cc2)CC1 (stereo not given) [KETOCONAZOLE],1,1,0.5,0.5,> 8,4,4,> 8,4,> 8
C[C@H](C(=O)N(C)CC(O)(Cn1ccnc1)c1ccc(Cl)cc1Cl)c1ccc(-c2ccccc2)c(F)c1 (stereo not given in full),0.25,0.5,0.5,0.25,4,–,–,–,–,–
C[C@H](C(=O)OC(Cn1cnnn1)c1ccc(F)cc1)c1ccc(-c2ccccc2)c(F)c1 (stereo not given in full),0.5,1,0.5,0.25,4,–,–,–,–,–
C[C@H](C(=O)N(C)CC(O)(Cn1ccnc1)c1ccc(F)cc1)c1cccc(C(=O)c2ccccc2)c1 (stereo not given in full),0.5,0.5,1,0.5,> 8,–,–,–,–,–
COc1ccc2cc([C@H](C)C(=O)OC(Cn3ccnc3)c3ccc(F)cc3)ccc2c1 (stereo not given in full),0.5,1,2,0.5,4,–,–,–,–,–
C[C@H](C(=O)OC(Cn1cnnn1)c1ccc(Cl)cc1)c1ccc(CC2CCCC2=O)cc1 (stereo not given in full),2,4,2,1,> 8,–,–,–,–,–
C[C@H](C(=O)N(C)CC(O)(Cn1ccnc1)c1ccc(F)cc1)c1ccc(-c2ccccc2)c(F)c1 (stereo not given in full),0.25,0.5,0.25,0.25,4,–,–,–,–,–
COc1ccc2cc([C@H](C)C(=O)OC(Cn3cnnn3)c3ccc(Cl)cc3)ccc2c1 (stereo not given in full),0.5,0.5,0.25,0.5,4,–,–,–,–,–
C[C@H](C(=O)N[C@H](Cn1cncn1)c1ccccc1)c1ccc(-c2ccccc2)c(F)c1,0.5,0.5,0.5,0.25,4,–,–,–,–,–
COc1ccc2cc([C@H](C)C(=O)N[C@H](Cn3ccnc3)c3ccccc3)ccc2c1,1,1,0.5,0.5,> 8,–,–,–,–,–
C[C@H](C(=O)N[C@H](Cn1ccnc1)c1ccccc1)c1ccc(-c2ccccc2)c(F)c1,0.5,0.5,0.25,0.5,4,–,–,–,–,–
C[C@H](C(=O)OC(Cn1ccnc1)c1ccc(F)cc1)c1cccc(C(=O)c2ccccc2)c1 (stereo not given in full),0.5,0.5,0.5,2,4,–,–,–,–,–
C[C@H](C(=O)OC(Cn1cnnn1)c1ccc(F)cc1)c1cccc(C(=O)c2ccccc2)c1 (stereo not given in full),0.5,0.5,0.5,1,> 8,–,–,–,–,–
COc1ccc2cc([C@H](C)C(=O)OC(Cn3cnnn3)c3ccc(F)cc3)ccc2c1 (stereo not given in full),1,1,0.5,2,> 8,–,–,–,–,–
COc1ccc2cc([C@H](C)C(=O)N(C)CC(O)(Cn3ccnc3)c3ccc(F)cc3)ccc2c1 (stereo not given in full),0.5,1,1,0.25,> 8,–,–,–,–,–
C[C@H](C(=O)OC(Cn1cnnn1)c1ccc(Cl)cc1)c1ccc(-c2ccccc2)c(F)c1 (stereo not given in full),1,0.5,0.25,1,2,–,–,–,–,–
C[C@H](C(=O)N[C@H](Cn1ccnc1)c1ccccc1)c1ccc(CC2CCCC2=O)cc1 (stereo not given in full),2,1,0.5,0.5,4,–,–,–,–,–
C[C@H](C(=O)OC(Cn1ccnc1)c1ccc(F)cc1)c1ccc(CC2CCCC2=O)cc1 (stereo not given in full),2,2,1,2,> 8,–,–,–,–,–
C[C@H](C(=O)N[C@H](Cn1cncn1)c1ccccc1)c1ccc(CC2CCCC2=O)cc1 (stereo not given in full),1,2,0.5,2,> 8,–,–,–,–,–
COc1ccc2cc([C@H](C)C(=O)N[C@H](Cn3cncn3)c3ccccc3)ccc2c1,0.25,1,0.25,0.25,4,–,–,–,–,–
